Laboratory results from patent publication US7968570B2, “Isoindolone compounds and their use as metabotropic glutamate receptor potentiators” (AstraZeneca AB, priority 2004, dated 2011).

target: T1, human mGluR2 receptor (Homo sapiens, UniProt Q14416); experiment: [35S]-GTPγS binding assay of mGluR2 receptor activation; type: biochemical; details: not given
T1 construct: expressed in transfected cells
Method in brief: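 CHO membranes stably expressing human mGluR2 (30 μg) preincubated 15 min at room temperature with compound (3 nM–300 μM), then 1 μM glutamate, 30 μM GDP, 0.1 nM [35S]-GTPγS, 30 min at 30° C in HEPES/NaCl/MgCl2. Filtration counting; EC50 and Emax relative to maximal glutamate effect by non-linear regression.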

T1 sequence (Q14416 19-872): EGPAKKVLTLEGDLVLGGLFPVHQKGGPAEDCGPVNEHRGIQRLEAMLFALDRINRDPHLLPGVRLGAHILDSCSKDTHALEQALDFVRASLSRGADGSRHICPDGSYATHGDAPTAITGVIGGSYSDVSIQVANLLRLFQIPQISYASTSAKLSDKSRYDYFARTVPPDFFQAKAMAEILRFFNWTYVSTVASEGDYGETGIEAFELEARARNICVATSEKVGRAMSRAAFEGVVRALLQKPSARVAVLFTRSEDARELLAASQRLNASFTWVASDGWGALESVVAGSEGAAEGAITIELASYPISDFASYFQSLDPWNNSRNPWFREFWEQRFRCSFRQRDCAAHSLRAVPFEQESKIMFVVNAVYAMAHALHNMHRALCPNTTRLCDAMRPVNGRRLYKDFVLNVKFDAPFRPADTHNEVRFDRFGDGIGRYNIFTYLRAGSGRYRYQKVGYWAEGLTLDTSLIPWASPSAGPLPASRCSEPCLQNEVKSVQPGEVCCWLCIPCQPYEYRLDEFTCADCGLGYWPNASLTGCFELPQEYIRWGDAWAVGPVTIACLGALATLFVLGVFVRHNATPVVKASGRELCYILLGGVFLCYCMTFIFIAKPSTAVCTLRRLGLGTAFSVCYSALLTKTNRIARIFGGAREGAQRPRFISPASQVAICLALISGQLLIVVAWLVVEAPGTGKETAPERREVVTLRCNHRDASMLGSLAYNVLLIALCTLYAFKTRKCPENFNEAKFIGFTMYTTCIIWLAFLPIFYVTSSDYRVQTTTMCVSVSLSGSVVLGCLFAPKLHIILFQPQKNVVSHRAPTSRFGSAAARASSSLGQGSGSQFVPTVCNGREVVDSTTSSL

Row | EC50 [nM] | SMILES
1 | 100 | Cc1cc(-c2nc(CN(C)C)no2)cc2c1C(=O)N(Cc1ccc(OC(F)(F)F)cc1)C2 [Example 180, 5-(3-Dimethylamino-methyl-[1,2,4]oxadiazol-5-yl)-7-methyl-2-(4-trifluorometh-oxy-benzyl)-2,3-dihydro-isoindol-1-one]
2 | 1290 | Cc1cc(-c2nnc(CN3CCOCC3)o2)cc2c1C(=O)N(Cc1ccc(OC(F)(F)F)cc1)C2 [Example 176, 7-Methyl-5-(5-morpholin-4-ylmethyl-[1,3,4]oxadiazol-2-yl)-2-(4-trifluorometh-oxy-benzyl)-2,3-dihydro-isoindol-1-one]
3 | 2120 | CNCc1nnc(-c2cc(C)c3c(c2)CN(Cc2ccc(OC(F)(F)F)cc2)C3=O)o1 [Example 181, 7-Methyl-5-(5-methylaminomethyl-[1,3,4]oxadiazol-2-yl)-2-(4-trifluorometh-oxy-benzyl)-2,3-dihydro-isoindol-1-one]
4 | 140 | CCN(CC)Cc1noc(-c2cc(C)c3c(c2)CN(Cc2ccc(OC(F)(F)F)cc2)C3=O)n1 [Example 177, 5-(3- Diethylaminomethyl-[1,2,4]oxadiazol-5-yl)-7-methyl-2-(4-trifluorometh-oxy-benzyl)-2,3-dihydro-isoindol-1-one]

same assay, conditions: membranes from CHO cells stably expressing human mGluR2; 1 μM glutamate

Row | SMILES | EC50 [nM]
5 | Cc1cc(CN2CCC(CCCc3ccccc3)CC2)cc2c1C(=O)N(Cc1ccc(OC(F)(F)F)cc1)C2 [Example 54, 7-Methyl-5-[4-(3-phenylpropyl)-piperidin-1-ylmethyl]-2-(4-trifluoromethoxy-benzyl)-2,3-dihydroisoindol-1-one] | 100
6 | Cc1cc(N2CCCN3CCCCC3C2)cc2c1C(=O)N(Cc1ccc(OC(F)(F)F)cc1)C2 (centres unmarked) [Example 122, 7-Methyl-5-(octahydropyrido [1,2-a][1,4]diazepin-2-yl)-2-(4-trifluoromethoxy-benzyl)-2,3-dihydroisoindol-1-one] | 3550
7 | Cc1cc(N2CCN3CCCC3C2)cc2c1C(=O)N(Cc1ccc(OC(F)(F)F)cc1)C2 (centres unmarked) [Example 111, 5- (Hexahydropyrrolo [1,2-a]pyrazin-2-yl)-7-methyl-2-(4-trifluoromethoxybenzyl)-2,3-dihydroisoindol-1-one] | 600
8 | Cc1cc(CN2CCC(n3c(=O)[nH]c4ccccc43)CC2)cc2c1C(=O)N(Cc1ccc(OC(F)(F)F)cc1)C2 [Example 56, 1-{1-[7-Methyl-1-oxo-2-(4-trifluoromethoxy-benzyl)-2,3-dihydro-1H-isoindol-5-ylmethyl]-piperidin-4-yl}-1,3-dihydro-benzoimidazol-2-one] | 60
9 | CN1CN(c2ccccc2)C2(CCN(c3ccc4c(c3)CN(Cc3ccc(OC(F)(F)F)cc3)C4=O)CC2)C1=O [Example 151, 3-Methyl-8-[1-oxo-2-(4-trifluoromethoxy-benzyl)-2,3-dihydro-1H-isoindol-5-yl]-1-phenyl-1,3,8-triaza-spiro[4.5]decan-4-one] | 480
10 | O=C(CN1CCN(c2ccc3c(c2)CN(Cc2ccc(OC(F)(F)F)cc2)C3=O)CC1)N1CCCC1 [Example 148, 5-[4-(2-Oxo-2-pyrrolidin-1-yl-ethyl)-piperazin-1-yl]-2-(4-trifluoromethoxy-benzyl)-2,3-dihydro-isoindol-1-one] | 6780
11 | Cc1cc(CN(C)Cc2ccccc2)cc2c1C(=O)N(Cc1ccc(OC(F)(F)F)cc1)C2 [compound 35, 5-[(Benzylmethylamino)-methyl]-7-methyl-2-(4-trifluoromethoxy-benzyl)-2,3-dihydro-isoindol-1-one] | 70
12 | CCN(CC)C(=O)C1CCCN(Cc2cc(C)c3c(c2)CN(Cc2ccc(OC(F)(F)F)cc2)C3=O)C1 (centres unmarked) [Example 50, 1-[7-Methyl-1-oxo-2-(4-trifluoromethoxy-benzyl)-2,3-dihydro-1H-isoindol-5-ylmethyl]-piperidine-3-carboxylic acid diethylamide] | 1810
13 | Cc1cc(CNCCc2ccccc2)cc2c1C(=O)N(Cc1ccc(OC(F)(F)F)cc1)C2 [Example 46, 7-Methyl-5-(phenethylamino-methyl)-2-(4-trifluoromethoxy-benzyl)-2,3-dihydro-isoindol-1-one] | 630
14 | COCCN1CCN(c2cc(Cl)c3c(c2)CN(Cc2ccc(OC(F)(F)F)cc2)C3=O)CC1 [Example 154, 7-Chloro-5-[4-(2-methoxy-ethyl)-piperazin-1-yl]-2-(4-trifluoromethoxy-benzyl)-2,3-dihydro-isoindol-1-one] | 210
15 | COc1cc(N2CCC(N(C)C)C2)cc2c1C(=O)N(Cc1ccc(OC(F)(F)F)cc1)C2 (centres unmarked) [Example 126, 5-(3- Dimethylaminopyrrolidin-1-yl)-7-methoxy-2-(4-trifluoromethoxy-benzyl)-2,3-dihydroisoindol-1-one] | 2520

The next lines start with the values.

Row | EC50 [nM] | SMILES
16 | 370 | Cc1cc(Br)cc2c1C(=O)N(Cc1ccc(OC(F)(F)F)cc1)C2 [Example 30, 5-Bromo-7-methyl-2-(4-trifluoromethoxy-benzyl)-2,3-dihydro-isoindol-1-one]
17 | 6340 | COc1cc(N2CCN3CCCC3C2)cc2c1C(=O)N(Cc1ccc(Cl)cc1)C2 (centres unmarked) [Example 129]
18 | 590 | CN1CCN(c2cc(Cl)c3c(c2)CN(Cc2ccc(Cl)cc2)C3=O)CC1 [Example 133, 7-Chloro-2-(4-chlorobenzyl)-5-(4-methyl-piperazin-1-yl)-2,3-dihydroisoindol-1-one]
19 | 420 | Cc1cc(N2CCN(Cc3ccncc3)CC2)cc2c1C(=O)N(Cc1ccc(Cl)cc1)C2 [Example 143, 2-(4-Chloro-benzyl)-7-methyl-5-(4-pyridin-4-ylmethyl-piperazin-1-yl)-2,3-dihydro-isoindol-1-one]
20 | 360 | O=C1c2c(Cl)cc(-c3cccnc3)cc2CN1Cc1ccc(Cl)cc1 [Example 107, 7-Chloro-2-(4-chloro-benzyl)-5-pyridin-3-yl-2,3-dihydro-isoindol-1-one]
21 | 610 | CN1CCN(c2cc(Cl)c3c(c2)CN(Cc2ccc(OC(F)(F)F)cc2)C3=O)CC1 [Example 131, 7-Chloro-5-(4-methyl-piperizin-1-yl)-2-(4-trifluoromethoxy-benzyl)-2,3-dihydro-isoindol-1-one]
22 | 130 | O=C1c2c(Cl)cc(-c3ccncc3)cc2CN1Cc1ccc(Cl)cc1 [Example 106, 7-Chloro-2-(4-chloro-benzyl)-5-pyridin-4-yl-2,3-dihydro-isoindol-1-one]
23 | 220 | COc1cc(-c2cccnc2)cc2c1C(=O)N(Cc1ccc(OC(F)(F)F)cc1)C2 [Example 100, 7-Methoxy-5-pyridin-3-yl-2-(4-trifluoromethoxy-benzyl)-2,3-dihydroisoindol-1-one]
24 | 420 | Cc1cc(N2CCC(N(C)C)C2)cc2c1C(=O)N(Cc1ccc(Cl)cc1)C2 (centres unmarked) [Example 119, 2-(4-chlorobenzyl)-5-(3-dimethylamino-pyrollidin-1-yl)-7-methyl-2,3-dihydroisoindol-1-one]
25 | 470 | Cc1cc(CNCc2ccncc2)cc2c1C(=O)N(Cc1ccc(OC(F)(F)F)cc1)C2 [Example 42, 7-Methyl-5-{[(pyridine-4-ylmethyl)-amino]-methyl}-2-(4-trifluoromethoxy-benzyl)-2,3-dihydro-isoindol-1-one]
26 | 100 | Cc1cc(OCc2ccccn2)cc2c1C(=O)N(Cc1ccc(OC(F)(F)F)cc1)C2 [Example 82, 7-Methyl-5-(pyridine-2-ylmethoxy)-2-(4-trifluoromethoxy-benzyl)-2,3-dihydro-isoindol-1-one]
27 | 1450 | Cc1cc(CNCc2ccccn2)cc2c1C(=O)N(Cc1ccc(OC(F)(F)F)cc1)C2 [Example 40, 7-Methyl-5-{[(pyridine-2-ylmethyl)-amino]-methyl}-2-(4-trifluoromethoxy-benzyl)-2,3-dihydro-isoindol-1-one]
28 | 2800 | COc1cc(Br)cc2c1C(=O)N(Cc1ccc(Cl)cc1)C2 [Example 32, 5-Bromo-2-(4-chloro-benzyl)-7-methoxy-2,3-dihydro-isoindol-1-one]
29 | 60 | Cc1cc(-c2ccc(CN(C)C)cc2)cc2c1C(=O)N(Cc1ccc(OC(F)(F)F)cc1)C2 [Example 86, 5-(4-Dimethylamino-methyl-phenyl)-7-methyl-2-(4-trifluoromethoxy-benzyl)-2,3-dihydro-isoindol-1-one]
